Test [1] has as its target T1, erbB2 (Homo sapiens, UniProt P04626).
T1 construct: a cell line that overexpresses full length wild type erbB2 protein; expressed in transfected cells; host or cells: MCF7 (breast carcinoma) derived 'Clone 24' cells
The test can be described thus: Clone 24 phospho-erbB2 cell assay, Test (c). The conditions noted are these: MCF7 derived cell line overexpressing erbB2 (Clone 24 cells); read-out: IC50 (μM) Test (c): Inhibition of erbB2 tyrosine kinase protein phosphorylation. Type of test: cell-based. The protocol:
This immunofluorescence end point assay measures the ability of a test compound to inhibit the phosphorylation of erbB2 in a MCF7 (breast carcinoma) derived cell line which was generated by transfecting MCF7 cells with the full length erbB2 gene using standard methods to give a cell line that overexpresses full length wild type erbB2 protein (hereinafter ‘Clone 24’ cells).
Clone 24 cells were cultured in Growth Medium (phenol red free Dulbecco's modified Eagle's medium (DMEM) containing 10% foetal bovine serum, 2 mM glutamine and 1.2 mg/ml G418) in a 7.5% CO2 air incubator at 37° C. Cells were harvested from T75 stock flasks by washing once in PBS (phosphate buffered saline, pH7.4, Gibco No. 10010-015) and harvested using 2 mls of Trypsin (1.25 mg/ml)/ethylaminediaminetetraacetic acid (EDTA) (0.8 mg/ml) solution. The cells were resuspended in Growth Medium. Cell density was measured using a haemocytometer and viability was calculated using Trypan Blue solution before being further diluted in Growth Medium and seeded at a density of 1×10^4 cells per well (in 100 ul) into clear bottomed 96 well plates (Packard, No. 6005182).
3 days later, Growth Medium was removed from the wells and replaced with 100 ul Assay Medium (phenol red free DMEM, 2 mM glutamine, 1.2 mg/ml G418) either with or without erbB inhibitor compound. Plates were returned to the incubator for 4 hrs and then 20 μl of 20% formaldehyde solution in PBS was added to each well and the plate was left at room temperature for 30 minutes. This fixative solution was removed with a multichannel pipette, 100 μl of PBS was added to each well and then removed with a multichannel pipette and then 50 μl PBS was added to each well. Plates were then sealed and stored for up to 2 weeks at 4° C.
Immunostaining was performed at room temperature. […]
The Fluorescence signal is each well was measured using an Acumen Explorer Instrument (Acumen Bioscience Ltd.), a plate reader that can be used to rapidly quantitate features of images generated by laser-scanning. […]

Test [2] addresses T2, erbB2 tyrosine kinase (Homo sapiens, UniProt P04626).
T2 construct: Recombinant intracellular fragments of EGFR, erbB2 and erbB4; made in house; host or cells: baculovirus/Sf21 insect cells (cleared lysate used)
Description: Protein tyrosine kinase phosphorylation assay, Test (a), erbB2. The conditions noted are these: read-out: IC50 (μM) Test (a): Inhibition of erbB2 tyrosine kinase protein phosphorylation. Type of test: biochemical. As to the method:
(§1) Recombinant intracellular fragments of EGFR, erbB2 and erbB4 (accession numbers X00588, X03363 and L07868 respectively) were cloned and expressed in the baculovirus/Sf21 system. Lysates were prepared from these cells by treatment with ice-cold lysis buffer (20 mM N-2-hydroxyethylpiperizine-N′-2-ethanesulfonic acid (HEPES) pH7.5, 150 mM NaCl, 10% glycerol, 1% Triton X-100, 1.5 mM MgCl2, 1 mM ethylene glycol-bis(β-aminoethyl ether)N′,N′,N′,N′-tetraacetic acid (EGTA), plus protease inhibitors and then cleared by centrifugation.
Constitutive kinase activity of these recombinant proteins was determined by their ability to phosphorylate a synthetic peptide (made up of a random co-polymer of Glutamic Acid, Alanine and Tyrosine in the ratio of 6:3:1). Specifically, Maxisorb™ 96-well immunoplates were coated with synthetic peptide (0.2 μg of peptide in a […] phosphate buffered saline (PBS) solution and incubated at 4° C. overnight). Plates were washed in 50 mM HEPES pH 7.4 at room temperature to remove any excess unbound synthetic peptide. EGFR or erbB2 activities were assessed by incubation in peptide coated plates for 20 minutes at room temperature in 100 mM HEPES pH 7.4 at room temperature, adenosine trisphosphate (ATP) at Km concentration for the respective enzyme, 10 mM MnCl2, 0.1 mM Na3VO4, 0.2 mM DL-dithiothreitol (DTT), 0.1% Triton X-100 with test compound in DMSO (final concentration of 2.5%). […]
The immobilised phospho-peptide product of the reaction was detected by immunological methods. […] After further washing, HRP activity in each well of the plate was measured colorimetrically using 22′-Azino-di-[3-ethylbenzthiazoline sulfonate (6)]diammonium salt crystals (ABTS™ from Roche) as a substrate. Quantification of colour development and thus enzyme activity was achieved by the measurement of absorbance at 405 nm on a Molecular Devices ThermoMax microplate reader. Kinase inhibition for a given compound was expressed as an IC50 value. […] The range of phosphorylation was calculated from the positive (vehicle plus ATP) and negative (vehicle minus ATP) control values.

The target of test [3] is T3, EGFR tyrosine kinase (Homo sapiens, UniProt P00533).
T3 construct: Recombinant intracellular fragments of EGFR, erbB2 and erbB4; made in house; host or cells: baculovirus/Sf21 insect cells (cleared lysate used)
T3 sequence (P00533 669-1210 limits assumed): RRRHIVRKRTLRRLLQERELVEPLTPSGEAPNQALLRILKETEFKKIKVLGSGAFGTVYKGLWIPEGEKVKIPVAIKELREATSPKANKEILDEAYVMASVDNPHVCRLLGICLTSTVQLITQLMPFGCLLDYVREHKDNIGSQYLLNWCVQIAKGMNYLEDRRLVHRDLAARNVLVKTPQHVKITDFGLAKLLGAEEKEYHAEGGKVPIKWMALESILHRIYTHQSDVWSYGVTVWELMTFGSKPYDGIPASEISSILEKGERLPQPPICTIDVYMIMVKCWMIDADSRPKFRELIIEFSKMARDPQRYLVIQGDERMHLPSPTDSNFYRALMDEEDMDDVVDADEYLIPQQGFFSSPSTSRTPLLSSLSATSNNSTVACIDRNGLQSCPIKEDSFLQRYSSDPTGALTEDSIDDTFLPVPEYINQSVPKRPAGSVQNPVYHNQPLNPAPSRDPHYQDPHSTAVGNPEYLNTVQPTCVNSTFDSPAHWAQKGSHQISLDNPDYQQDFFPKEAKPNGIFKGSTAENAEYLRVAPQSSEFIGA
Description: Protein tyrosine kinase phosphorylation assay, Test (a), EGFR. Conditions: read-out: IC50 (μM) Test (a): Inhibition of EGFR tyrosine kinase protein phosphorylation. Type of test: biochemical. As to the method: This test measures the ability of a test compound to inhibit the phosphorylation of a tyrosine containing polypeptide substrate by EGFR tyrosine kinase enzyme.
as §1
Constitutive kinase activity of these recombinant proteins was determined by their ability to phosphorylate a synthetic peptide (made up of a random co-polymer of Glutamic Acid, Alanine and Tyrosine in the ratio of 6:3:1). […]
The immobilised phospho-peptide product of the reaction was detected by immunological methods. […] After further washing, HRP activity in each well of the plate was measured colorimetrically using 22′-Azino-di-[3-ethylbenzthiazoline sulfonate (6)]diammonium salt crystals (ABTS™ from Roche) as a substrate. Quantification of colour development and thus enzyme activity was achieved by the measurement of absorbance at 405 nm on a Molecular Devices ThermoMax microplate reader. […]

T1 sequence (P04626 23-1255): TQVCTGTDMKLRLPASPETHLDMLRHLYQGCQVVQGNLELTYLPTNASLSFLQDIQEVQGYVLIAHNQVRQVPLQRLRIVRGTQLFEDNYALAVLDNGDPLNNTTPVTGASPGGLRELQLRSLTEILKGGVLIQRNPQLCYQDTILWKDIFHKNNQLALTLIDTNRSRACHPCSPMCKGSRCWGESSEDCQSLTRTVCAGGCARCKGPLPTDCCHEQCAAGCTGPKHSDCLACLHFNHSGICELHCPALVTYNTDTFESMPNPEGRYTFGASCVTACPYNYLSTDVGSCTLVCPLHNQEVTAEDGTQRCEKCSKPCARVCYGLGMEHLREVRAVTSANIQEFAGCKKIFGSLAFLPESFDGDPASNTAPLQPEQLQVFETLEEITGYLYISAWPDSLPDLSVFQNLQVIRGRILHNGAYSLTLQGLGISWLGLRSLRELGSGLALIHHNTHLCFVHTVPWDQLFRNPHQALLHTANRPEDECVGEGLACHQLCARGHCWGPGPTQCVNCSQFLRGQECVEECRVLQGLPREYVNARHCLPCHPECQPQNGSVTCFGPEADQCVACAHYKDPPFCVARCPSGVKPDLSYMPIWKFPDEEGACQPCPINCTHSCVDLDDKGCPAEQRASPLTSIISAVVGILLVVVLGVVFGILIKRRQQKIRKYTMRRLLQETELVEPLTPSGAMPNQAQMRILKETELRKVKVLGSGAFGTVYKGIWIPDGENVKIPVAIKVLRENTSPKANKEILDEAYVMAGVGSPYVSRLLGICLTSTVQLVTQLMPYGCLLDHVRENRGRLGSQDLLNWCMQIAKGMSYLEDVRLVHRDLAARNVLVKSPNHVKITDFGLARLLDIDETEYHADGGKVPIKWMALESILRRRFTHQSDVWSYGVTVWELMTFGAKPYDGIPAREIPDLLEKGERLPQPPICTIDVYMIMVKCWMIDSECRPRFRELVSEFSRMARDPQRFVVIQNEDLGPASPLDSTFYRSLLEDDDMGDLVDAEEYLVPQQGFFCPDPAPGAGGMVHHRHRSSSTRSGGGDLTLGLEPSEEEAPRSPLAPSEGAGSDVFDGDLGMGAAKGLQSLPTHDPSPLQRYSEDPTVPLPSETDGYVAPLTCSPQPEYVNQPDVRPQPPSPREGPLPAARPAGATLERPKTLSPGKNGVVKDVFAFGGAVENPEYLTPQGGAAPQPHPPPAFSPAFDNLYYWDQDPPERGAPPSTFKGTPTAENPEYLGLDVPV
T2 sequence (P04626 676-1255 limits assumed): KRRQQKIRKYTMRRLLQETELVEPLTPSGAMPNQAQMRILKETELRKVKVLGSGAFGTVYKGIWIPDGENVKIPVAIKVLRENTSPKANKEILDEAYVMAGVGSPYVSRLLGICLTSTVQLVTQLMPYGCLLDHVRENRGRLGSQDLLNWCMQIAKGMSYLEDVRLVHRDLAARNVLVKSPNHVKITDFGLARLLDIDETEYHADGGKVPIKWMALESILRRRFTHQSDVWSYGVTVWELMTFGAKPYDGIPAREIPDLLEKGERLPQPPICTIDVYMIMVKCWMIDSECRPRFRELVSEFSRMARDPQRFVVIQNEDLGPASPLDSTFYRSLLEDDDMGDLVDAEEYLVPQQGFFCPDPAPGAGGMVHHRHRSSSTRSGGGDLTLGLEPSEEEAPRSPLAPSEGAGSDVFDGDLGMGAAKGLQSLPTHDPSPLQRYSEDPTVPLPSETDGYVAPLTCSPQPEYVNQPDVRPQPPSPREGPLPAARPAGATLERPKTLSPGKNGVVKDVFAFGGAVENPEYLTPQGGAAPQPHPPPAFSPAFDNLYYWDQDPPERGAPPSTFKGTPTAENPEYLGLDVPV

For the compound `CN(C)CC(=O)N1CCC[C@@H]1COc1cccc2ncnc(Nc3ccc(OCc4cncs4)c(Cl)c3)c12` [Example 25, N-[3-Chloro-4-(1,3-thiazol-5-ylmethoxy)phenyl]-5-({(2R)-1-[(dimethylamino)acetyl]pyrrolidin-2-yl}methoxy)quinazolin-4-amine], the results for the IC50 in test [1] and in test [2] were 1.4 µM and 0.048 µM, respectively.

In the case of `Cc1cccc(COc2ccc(Nc3ncnc4cccc(OC[C@@H]5CCCN5C(=O)CO)c34)cc2Cl)n1` [Example 40], the concentration for half-maximal inhibition (IC50) in test [1] turned out to be 2.4 µM; in test [3], 33 µM; in test [2], 0.63 µM.

As for `O=C(CO)N1CCC[C@H](COc2cccc3ncnc(Nc4ccc(OCc5cscn5)c(Cl)c4)c23)C1` [Example 78, 2-((3S)-3-{[(4-{[3-chloro-4-(1,3-thiazol-4-ylmethoxy)phenyl]amino}quinazolin-5-yl)oxy]methyl}piperidin-1-yl)-2-oxoethanol], the IC50 in test [1] stood at 0.19 µM; in test [3] it was 2.4 µM; in test [2], 0.034 µM.

As a reminder, the IC50 is the concentration needed to halve the response being measured.

The record behind these values is patent US20070015743A1, “Quinazoline derivatives as antitumor agents” (priority 2003, published 2007).
